Measured values published in PubChem BioAssay (NCI).
Where “and” joins values, the source holds several entries; their conditions need not be identical. Identical values can stand only once.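 Assay format: 96-well plates, 48-hour exposure. Here, GI50 denotes the concentration required for 50% inhibition of growth. TGI: total growth inhibition.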

Columns and labels:
Test in all cases: NCI-60 cell line screen, 48 h
786-0 renal = system: 786-0 renal
A498 renal = system: A498 renal
A549 NSCLC = system: A549 NSCLC
CCRF-CEM leukemia = system: CCRF-CEM leukemia
HCT-116 colon = system: HCT-116 colon
SF-268 CNS = system: SF-268 CNS
SK-MEL-2 melanoma = system: SK-MEL-2 melanoma
U251 CNS = system: U251 CNS
UACC-257 melanoma = system: UACC-257 melanoma
OVCAR-3 ovarian = system: OVCAR-3 ovarian

Row | Compound | TGI (786-0 renal) | TGI (A498 renal) | TGI (A549 NSCLC) | TGI (CCRF-CEM leukemia) | TGI (HCT-116 colon) | TGI (SF-268 CNS) | TGI (SK-MEL-2 melanoma) | TGI (U251 CNS) | TGI (UACC-257 melanoma) | GI50 (786-0 renal) | GI50 (A498 renal) | GI50 (A549 NSCLC) | GI50 (CCRF-CEM leukemia) | GI50 (HCT-116 colon) | GI50 (OVCAR-3 ovarian) | TGI (OVCAR-3 ovarian) | GI50 (SF-268 CNS) | GI50 (SK-MEL-2 melanoma) | GI50 (U251 CNS) | GI50 (UACC-257 melanoma)
1 | CCC1OCCN1C(C)C (stereo unspecified) | > 100 µM | > 100 µM | > 100 µM | > 100 µM | > 100 µM | > 100 µM | > 100 µM | > 100 µM | > 100 µM | – | – | – | – | – | – | – | – | – | – | –
2 | COc1ccc(C2=CC(c3cc(OC)c(OC)c(OC)c3)n3ncnc3N2)cc1 (stereo unspecified) | > 100 µM | 25.1 µM | 30.3 µM | > 100 µM | > 100 µM | 29.7 µM | 71.1 µM | 29.6 µM | – | 0.0448 µM | 42.6 nM | 85.8 nM | 42.5 nM | 40.1 nM | 28.6 nM | 0.0764 µM | 83.3 nM | 16900 nM | 55.1 nM | –
3 | CCOC(=O)CCC1(C(=O)OC)CCCC1=O (stereo unspecified) | > 100 µM | > 100 µM | > 100 µM | – | > 100 µM | > 100 µM | > 100 µM | > 100 µM | > 100 µM | – | – | – | – | – | – | > 100 µM | – | – | – | –
4 | CC[C@@]1(OC(=O)CN)C(=O)OCc2c1cc1n(c2=O)Cc2cc3cc(N)ccc3nc2-1 | 0.0409 µM | 0.337 µM | 1.45 µM | – | – | – | 0.421 µM | – | 1.66 µM | < 0.01 µM | 32.2 nM | < 17.6 nM | < 10 nM | – | 181 nM | 0.848 µM | < 10 nM | < 44.1 nM | < 10 nM | 0.0887 µM
5 | CCCCCCCCCCCCCCCC[N+]1(CC)CCCC1 | 2.61 µM | 2.94 µM | 2.59 µM | 1.84 µM | 1.4 µM | 1.68 µM | – | 1.35 µM | 3.76 µM | 1.18 µM | 397 nM | 1070 nM | 379 nM | 361 nM | 478 nM | 1.65 µM | 454 nM | – | 363 nM | 1.58 µM
6 | Cc1ccc(NC(=O)CCC(=O)C2CC(=O)CC/C2=N\NC(=O)c2cc3ccccc3cc2O)cc1C (stereo unspecified) | > 100 µM | > 100 µM | > 100 µM | 58.3 µM | > 100 µM | > 100 µM | 82.7 µM | > 100 µM | 61.7 µM | – | – | – | – | – | – | 45.6 µM | – | – | – | –
7 | O=C1c2c(O)cccc2C(C(=O)CCCCC(=O)C2c3cccc(O)c3C(=O)c3c(O)cccc32)c2cccc(O)c21 | 5.53 µM and 10.7 µM | 5.27 µM and 7.36 µM | 1.06 µM and 2.43 µM | 2.65 µM and 2.61 µM | 2.1 µM and 6.82 µM | 2.39 µM and 6.86 µM | 1.22 µM and 2.46 µM | 1.01 µM and 2.22 µM | 1.34 µM and 2.96 µM | 4.83 µM | 2140 nM | 1100 nM | 1200 nM | 1930 nM | 1390 nM | 1.3 µM and 2.53 µM | 2250 nM | 1240 nM | 1020 nM | 1.38 µM
8 | Cc1nn(-c2ccccc2)c2c1C1C(=C(c3ccc(Cl)cc3)N2)C(=O)Nc2ccccc21 (stereo unspecified) | 31 µM | 26.4 µM | > 100 µM | 8.67 µM | 14.4 µM | > 100 µM | 4.29 µM | 12.3 µM | 25.4 µM | 3.97 µM | 4010 nM | 3120 nM | 2660 nM | 3550 nM | 4390 nM | 20.3 µM | 5170 nM | 1870 nM | 2980 nM | 4.33 µM
9 | COc1cc(C(c2cc3c(cc2O)OCO3)N2CCCC2)cc(OC)c1OC (stereo unspecified) | 28.8 µM | 36.8 µM | 48.9 µM | 5.95 µM | 29.8 µM | – | 40 µM | 37.8 µM | 36.6 µM | – | – | – | – | – | – | 34.9 µM | – | – | – | –
10 | O=C1C=C(Nc2cccc(Br)c2)c2ccccc2C1=O | 28.2 µM | 27.2 µM | 12.3 µM | 82.9 µM | 44.5 µM | > 100 µM | 22 µM | 22.1 µM | > 100 µM | 7.25 µM | 4060 nM | 1540 nM | 21400 nM | 10600 nM | 2890 nM | 16 µM | 9010 nM | 785 nM | 2740 nM | 5.99 µM
11 | Nc1ncnc2occ(-c3ccc(NC(=O)Nc4cc(C(F)(F)F)cc(C(F)(F)F)c4)cc3)c12 | 7.07 µM | 1.62 µM | 7.18 µM | 19.2 µM | 5.64 µM | 6.66 µM | 7.47 µM | 6.64 µM | 6.69 µM | 3.54 µM | 144 nM | 3000 nM | 4500 nM | 2630 nM | 3240 nM | 6.71 µM | 2920 nM | 3720 nM | 3280 nM | 3.27 µM
12 | CC(=O)[CH-]C(=O)c1ccccc1.CC(=O)[CH-]C(=O)c1ccccc1.[O]=[U+2]=[O] | > 100 µM | 96.9 µM | > 100 µM | > 100 µM | – | > 100 µM | > 100 µM | > 100 µM | > 100 µM | 40.2 µM | 28700 nM | 31000 nM | 27800 nM | – | 88200 nM | > 100 µM | 58200 nM | 37400 nM | 35500 nM | 34.3 µM
13 | COc1cc2oc3ccccc3c(=O)c2cc1CSc1ccccc1N | > 100 µM | > 73.5 µM | > 100 µM | 45.6 µM | > 100 µM | > 100 µM | > 77.6 µM | > 100 µM | > 100 µM | – | – | – | – | – | – | > 68.1 µM | – | – | – | –
14 | N#CC1c2ccccc2-c2ccccc2N1C(=O)c1ccccc1 (stereo unspecified) | > 88.1 µM | 5.55 µM | > 38.8 µM | > 36.3 µM | 9.22 µM | 23.4 µM | > 29.6 µM | > 46.7 µM | > 54.5 µM | 3.53 µM | 1320 nM | 2970 nM | 2170 nM | 1740 nM | 748 nM | 2.47 µM | 3030 nM | 2780 nM | 2680 nM | 5.32 µM
